Laboratory results from ChEMBL document CHEMBL5104134, “Targeting the interaction of β-catenin and TCF/LEF transcription factors to inhibit oncogenic Wnt signaling” (Bioorg Med Chem, 2022).
Starred links: 1 amine or outer side, 2 acyl side, 3 side chain; linkers in the order of their positions; H or OH if unused. Positions of bridges follow the written chain, without caps; N, C: chain ends. Non-standard residues stand in square brackets, D forms with d. Residues, ends and D or L forms follow the SMILES beside them. X1 = C(=C\[*:2])/CC[*:1]; βAla = NCCC(=O)O

Legend:
[1] = Inhibition of Wnt reporter activity in human SW480 cells by cell based assay; format: functional
[2] = Antiproliferative activity against human LNCaP-95 cells assessed as inhibition of cell proliferation incubated for 5 days by Cell Titer-Fluor assay; format: functional, cell-based; settings: LNCaP-95, 120 h
[3] = Antiproliferative activity against human LNCaP-abl cells assessed as inhibition of cell proliferation incubated for 5 days by Cell Titer-Fluor assay; format: functional, cell-based; settings: 120 h
[4] = target: T1, TCF4-CTNNB1 complex (Homo sapiens, UniProt P35222); test: Inhibition of His-tagged beta-catenin (134 to 668 residues)/CM-5 sensor chip immobilized N-terminal GST-tagged TCF4 interaction (unknown origin) preincubated with beta-catenin for 15 mins followed by TCF4 addition measured after 60 secs by SPR analysis; format: protein-complex assay
T1 sequence (P35222 whole entry): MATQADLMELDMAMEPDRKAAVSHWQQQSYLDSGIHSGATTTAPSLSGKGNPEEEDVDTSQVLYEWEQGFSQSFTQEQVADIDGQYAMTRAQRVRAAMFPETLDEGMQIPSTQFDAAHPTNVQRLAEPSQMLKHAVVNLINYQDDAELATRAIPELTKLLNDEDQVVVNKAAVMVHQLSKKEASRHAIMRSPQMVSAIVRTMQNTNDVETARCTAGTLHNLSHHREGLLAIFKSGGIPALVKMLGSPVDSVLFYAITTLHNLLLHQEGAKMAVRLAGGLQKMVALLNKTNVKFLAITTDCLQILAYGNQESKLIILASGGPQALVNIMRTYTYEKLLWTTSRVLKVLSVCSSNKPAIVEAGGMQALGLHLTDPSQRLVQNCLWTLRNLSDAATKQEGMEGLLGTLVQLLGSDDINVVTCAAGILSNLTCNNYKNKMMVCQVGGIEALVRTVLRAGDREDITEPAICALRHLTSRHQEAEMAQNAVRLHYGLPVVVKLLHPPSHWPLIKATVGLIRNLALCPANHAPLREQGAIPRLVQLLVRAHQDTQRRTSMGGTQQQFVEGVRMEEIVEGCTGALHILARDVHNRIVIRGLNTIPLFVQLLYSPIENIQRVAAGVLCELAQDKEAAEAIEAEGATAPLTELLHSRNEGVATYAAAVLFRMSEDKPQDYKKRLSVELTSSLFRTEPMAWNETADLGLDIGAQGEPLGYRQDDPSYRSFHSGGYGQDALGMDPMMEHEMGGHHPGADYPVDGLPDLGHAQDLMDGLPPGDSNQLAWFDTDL
T1 sequence (P15884 whole entry): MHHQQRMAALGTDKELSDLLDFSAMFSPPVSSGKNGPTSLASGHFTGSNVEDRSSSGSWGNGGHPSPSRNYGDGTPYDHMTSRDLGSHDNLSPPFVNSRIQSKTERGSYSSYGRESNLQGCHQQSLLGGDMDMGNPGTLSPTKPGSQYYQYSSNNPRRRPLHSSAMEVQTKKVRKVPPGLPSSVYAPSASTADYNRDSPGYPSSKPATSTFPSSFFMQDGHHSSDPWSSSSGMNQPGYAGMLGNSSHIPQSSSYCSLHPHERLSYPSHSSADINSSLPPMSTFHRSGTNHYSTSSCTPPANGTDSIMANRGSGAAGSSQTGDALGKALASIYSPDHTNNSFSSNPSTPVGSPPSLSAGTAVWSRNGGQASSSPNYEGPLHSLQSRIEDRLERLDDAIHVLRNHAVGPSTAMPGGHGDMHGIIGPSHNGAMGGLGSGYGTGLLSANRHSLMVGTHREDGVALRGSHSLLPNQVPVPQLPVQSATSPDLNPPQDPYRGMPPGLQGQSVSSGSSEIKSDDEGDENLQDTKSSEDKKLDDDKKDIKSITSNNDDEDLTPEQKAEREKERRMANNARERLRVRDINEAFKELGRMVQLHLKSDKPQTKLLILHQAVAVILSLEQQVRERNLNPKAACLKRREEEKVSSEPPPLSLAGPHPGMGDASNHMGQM

[5] = Inhibition of Wnt reporter activity in human HeLa cells by cell based assay

CCOC(=O)C[C@@H](NC(=O)[C@@H](Cc1ccc2ccccc2c1)NC(=O)Cc1cc2cc(Cl)ccc2[nH]1)C(=O)N[C@H](CC(=O)OCC)C(=O)OC
IC50 [1]: 29 µM

COc1cc(OC)cc(N2CC(=O)N(CCCOC(C)C)CC(=O)N(C(C)c3ccc(O)cc3)CC(=O)N(C(C)c3ccc(O)cc3)CC(=O)N[C@H](C)C(=O)N(CCc3ccccc3Oc3ccccc3)CC2=O)c1 (stereo not given in full)
IC50 [2]: 0.8 µM
IC50 [3]: 0.2 µM

CCc1ccc(OCc2nnc(SC3CCCC3=O)n2C(C)c2ccccc2)cc1 (stereo not given)
IC50 [4]: 24 µM

CC(C)C[C@@H]1NC(=O)[C@H](CC(C)C)NC(=O)[C@H](CO)NC(=O)[C@H](CC(=O)O)NC(=O)[C@@H]2CCCN2C(=O)[C@@H]2CCCN2C(=O)[C@H](C(C)C)NC(=O)[C@H](CC(=O)O)NC(=O)[C@H](CC(N)=O)NC(=O)[C@H](CCCNC(=N)N)NC(=O)[C@@H]2CS/C=C/CCSC[C@H](NC1=O)C(=O)N[C@@H](Cc1ccccc1)C(=O)NCCC(=O)NCCC(=O)N[C@@H](C(C)C)C(=O)N2 (cyclo(CF[βAla][βAla]VCRNDVPPDSLL); linker 1-6 via X1)
IC50 [5]: 8 µM
